Laboratory results: article PMC12206033, “Selective inhibition of TRPV3 channel by natural rosmarinic acid and its analogs for alleviation of skin lesions through downregulation of NF-κB pathway” (The Journal of Biological Chemistry, 2025)

Molecular target: T1, hTRPV3 (Homo sapiens, UniProt Q8NET8)
T1 construct: expressed in transfected cells; host or cells: HEK293T
T1 sequence (Q8NET8 1-790): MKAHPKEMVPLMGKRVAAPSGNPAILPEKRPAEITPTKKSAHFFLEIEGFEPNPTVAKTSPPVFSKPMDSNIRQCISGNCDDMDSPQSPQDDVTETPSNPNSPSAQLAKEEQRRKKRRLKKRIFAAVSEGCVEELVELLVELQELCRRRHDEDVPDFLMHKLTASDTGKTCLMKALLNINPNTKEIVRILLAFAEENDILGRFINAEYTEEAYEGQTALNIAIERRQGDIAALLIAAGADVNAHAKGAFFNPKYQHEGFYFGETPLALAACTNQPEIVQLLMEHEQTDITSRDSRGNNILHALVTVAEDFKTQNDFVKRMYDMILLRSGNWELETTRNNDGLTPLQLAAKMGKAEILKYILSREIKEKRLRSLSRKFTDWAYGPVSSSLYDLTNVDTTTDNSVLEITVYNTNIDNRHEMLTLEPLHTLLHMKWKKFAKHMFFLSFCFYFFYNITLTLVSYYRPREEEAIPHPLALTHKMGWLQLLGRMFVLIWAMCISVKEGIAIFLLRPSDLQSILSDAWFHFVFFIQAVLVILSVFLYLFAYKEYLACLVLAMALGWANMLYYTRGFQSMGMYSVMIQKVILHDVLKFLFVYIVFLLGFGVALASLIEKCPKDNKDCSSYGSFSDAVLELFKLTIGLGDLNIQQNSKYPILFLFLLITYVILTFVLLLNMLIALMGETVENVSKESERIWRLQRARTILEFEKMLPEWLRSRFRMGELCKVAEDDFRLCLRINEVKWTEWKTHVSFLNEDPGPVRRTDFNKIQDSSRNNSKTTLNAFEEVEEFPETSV
Assay: single-channel inside-out patch recordings of hTRPV3 in HEK293T cells
Format: cell-based
Settings: for single-channel open probability: n = 5
Procedure: HEK293T cell line was obtained from the Cell Resource Center, Peking Union Medical College. HEK293T cells were maintained in Dulbecco’s modified Eagle’s medium (DMEM, Gibco) supplemented with 10% fetal bovine serum at 37 °C with 5% CO2. HEK293T cells were seeded onto glass coverslips 1 day in advance and transiently transfected with […] complementary deoxyribonucleic acids of human TRPV3 (hTRPV3, accession number NM_145068.4), hTRPV1 (accession number NM_080704.3), mTRPV2 (accession number NM_011706.2), hTRPV4 (accession number NM_021625.5), hTRPA1 (accession number NM_007332.3), and hTRPM8 (accession number NM_024080.5) through Lipofectamine 2000 (Invitrogen) following the manufacture’s protocol. The next day, determine the plasmid transfection status by observing green fluorescence based on expression of enhanced GFP as an indicator. […] As for the relative fluorescence intensity, we convert the image to 8 bit grayscale using ImageJ (Https://imagej.net/software/fiji/downloads) and set an appropriate threshold value to reduce background noise and enhance the image contrast.
All patch-clamp recordings were conducted 16 to 24 h after transfection using an EPC10 amplifier powered by PatchMaster software (HEKA) (https://www.heka.com/downloads/downloads_main.html#down_patchmaster) at room temperature. The borosilicate glass pipettes were pulled using a DMZ universal electrode puller (Zeitz-Instruments GmbH) to achieve the resistances of three to 5 MΩ (for whole-cell recordings) or five to 9 MΩ (for inside-out patch recordings). Currents were recorded at a potential ramp from −100 mV to +100 mV for 1000 ms with 1000-ms intervals (for whole-cell recordings) or a persistent potential of −60 mV (inside-out patch recordings). Both pipette solution and bath solution contained (in mM): 130 NaCl, 3 Hepes, and 0.2 EDTA (pH = 7.2–7.4). All recording data were analyzed using Igor Pro (Wave-metrics) (https://www.wavemetrics.com/order/order_igordownloads.htm) and Origin 8.6 (Origin Lab) (https://www.originlab.com/doc/zh/Quick-Help/Download-Installer).

Compound: O=C(/C=C/c1ccc(O)c(O)c1)O[C@H](Cc1ccc(O)c(O)c1)C(=O)O [ROSA, rosmarinic acid]
- single-channel open probability (ROSA 100 μM co-perfused with 2-APB 50 μM): 0.13 ± 0.05
- single-channel open probability (ROSA 100 μM co-perfused with Car 300 μM): 0.28 ± 0.06
- effect on channel unitary conductance (ROSA 100 μM with 2-APB 50 μM or Car 300 μM): without altering the channel unitary conductance
